Measurements published in US6916797B2, “α-arylethylpiperazine derivatives as neurokinin antagonists” (UCB, S.A., priority 2000, dated 2005).
pIC50: −log10 of the molar value.

Target: NK1 receptors (Homo sapiens, UniProt P25103)
Assay: Binding of [4,5-3H-Leu10] substance P to human recombinant NK1 receptors expressed in CHO cell membranes
Set-up: host or cells: CHO cells
Details: pIC50 = -log IC50, concentration inhibiting by 50% the specific binding of [4,5-3H] substance P; tested as the free base/salt given in c1
Description: The following test was designed to assess the affinity of test substances for human recombinant NK1 receptors expressed in Chinese Hamster Ovarian (CHO) cells.
CHO cells expressing the human recombinant NK1 receptor are used. The cells were obtained from Euroscreen (Brussels, Belgium).
Cells expressing the human NK1 receptor are routinely cultured in 175 cm2 flasks containing 75 ml of medium F12 (Ham) enriched with 2 mmol/l L-glutamine, 100 IU/ml penicilline, 100 μg/ml streptomycine, 1% sodium pyruvate, 2.5 μg/ml fungizone amphotericin B, 400 μg/ml geneticin and supplemented with 10% foetal calf serum. […] When subcultured, the cells are seeded at a concentration of 50,000 cells/cm2.
Confluent cells are gently scraped and resuspended in 25 ml of phosphate buffered saline without calcium and magnesium. The cellular suspension is centrifuged at 1500×g for 3 min (4° C.). The cell pellet is homogenized in a 15 mmol/l Tris-HCl (pH 7.5) buffer, 2 mmol/l MgCl2, 0.3 mmol/l EDTA, 1 mmol/l EGTA. The crude membrane fraction is collected by two consecutive centrifugation steps at 40,000×g for 25 min (4° C.). The final pellet is resuspended in 20 mmol/l Tris-HCl (pH 7.4), 250 mmol/l sucrose buffer at a protein concentration ranging from 2 to 6 mg/ml and stored in liquid nitrogen. • 1.2.2. Test Design
The inhibition constant (Ki) is determined using increasing concentrations of the test substance. The concentration range usually encompasses 6 log units with variable steps (0.3 to 1 log). Assays are performed in mono- or duplicate.
Membranes are incubated at 25° C. for 60 min in 0.5 ml of a 50 mmol/l Tris-HCl buffer (pH 7.4) containing 2 mmol/l MgCl2, 100 μg/ml bacitracine, 0.1 to 0.4×10^−9 mol/l of [4,5^3H-Leu^10] substance P (specific activity>100 Ci/mmol) and increasing concentrations of the test substance. […] Membrane-bound and free radioligands are separated by rapid filtration through glass fiber filters (equivalent to Whatman GF/C or GF/B; VEL, Belgium) presoaked in 0.1% polyethyleneimine to reduce non specific binding. Samples and filters are rinsed by at least 6 ml of 50 mmol/l Tris-HCl (pH 7.4) buffer.
Initial values for the different variables may be provided by the experimenter.

Sequence of NK1 receptors (P25103 whole entry): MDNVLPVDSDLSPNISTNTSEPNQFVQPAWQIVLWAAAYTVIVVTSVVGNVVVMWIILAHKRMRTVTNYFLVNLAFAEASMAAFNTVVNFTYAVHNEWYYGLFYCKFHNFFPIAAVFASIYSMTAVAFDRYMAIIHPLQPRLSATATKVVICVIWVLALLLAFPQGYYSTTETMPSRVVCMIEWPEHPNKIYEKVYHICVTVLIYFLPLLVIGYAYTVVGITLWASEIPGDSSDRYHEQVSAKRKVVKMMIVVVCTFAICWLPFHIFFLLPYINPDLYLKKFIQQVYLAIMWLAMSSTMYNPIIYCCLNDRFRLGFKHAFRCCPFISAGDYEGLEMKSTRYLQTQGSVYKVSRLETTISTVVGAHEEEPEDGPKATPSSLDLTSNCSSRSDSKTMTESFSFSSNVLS

Point of comparison: `CC(=O)NC(CCN1CCN(C(COCc2cc(C(F)(F)F)cc(C(F)(F)F)c2)c2ccccc2)CC1)c1ccccc1` (stereo not drawn) [Compound 308, N-(3-{4-[2-(3,5-Bis-trifluoromethyl-benzyloxy)-1-phenyl-ethyl]-piperazin-1-yl}-1-phenyl-propyl)-acetamide], pIC50 7.90. Against it:
- CCOC(=O)CCCN1CCN(C(COCc2cc(C(F)(F)F)cc(C(F)(F)F)c2)c2ccccc2)CC1 (racemic) [Compound 138, 4-{4-[2-(3,5-Bis-trifluoromethyl-benzyloxy)-1-phenyl-ethyl]-piperazin-1-yl}-butyric acid ethyl ester] — within 0.2 log units, 8.00
- COC(=O)CCCCN1CCN(C(COCc2cc(C(F)(F)F)cc(C(F)(F)F)c2)c2ccccc2)CC1 (racemic) [Compound 139] — 0.30 log units higher, 8.20
- CCOC(=O)CCCCCN1CCN(C(COCc2cc(C(F)(F)F)cc(C(F)(F)F)c2)c2ccccc2)CC1 (racemic) [Compound 141] — 0.20 log units higher, 8.10
- CC(C)OC(=O)CCCCCN1CCN(C(COCc2cc(C(F)(F)F)cc(C(F)(F)F)c2)c2ccccc2)CC1 (racemic) [Compound 142] — 0.20 log units higher, 8.10
- NC(=O)COCCN1CCN(C(COCc2cc(C(F)(F)F)cc(C(F)(F)F)c2)c2ccccc2)CC1 (racemic) [Compound 147] — within 0.2 log units, 8.00
- NC(=O)CCCCCN1CCN(C(COCc2cc(C(F)(F)F)cc(C(F)(F)F)c2)c2ccccc2)CC1 (racemic) [Compound 150] — 0.40 log units higher, 8.30
- N#CCCCN1CCN(C(COCc2cc(C(F)(F)F)cc(C(F)(F)F)c2)c2ccccc2)CC1 (racemic) [Compound 151] — 0.20 log units lower, 7.70
- N#CCCCCN1CCN(C(COCc2cc(C(F)(F)F)cc(C(F)(F)F)c2)c2ccccc2)CC1 (racemic) [Compound 152] — the same, 7.90
- N#CCOCCN1CCN(C(COCc2cc(C(F)(F)F)cc(C(F)(F)F)c2)c2ccccc2)CC1 (racemic) [Compound 155] — within 0.2 log units, 7.80
- N#CCCCCCN1CCN(C(COCc2cc(C(F)(F)F)cc(C(F)(F)F)c2)c2ccccc2)CC1 (racemic) [Compound 156] — 0.20 log units higher, 8.10
- OCCN1CCN(C(COCc2cc(C(F)(F)F)cc(C(F)(F)F)c2)c2ccccc2)CC1 (racemic) [Compound 157, 2-{4-[2-(3,5-Bis-trifluoromethyl-benzyloxy)-1-phenyl-ethyl]-piperazin-1-yl}-ethanol] — 0.30 log units higher, 8.20
- O=S1(=O)CCN(CCN2CCN(C(COCc3cc(C(F)(F)F)cc(C(F)(F)F)c3)c3ccccc3)CC2)CC1 (racemic) [Compound 161] — 0.20 log units higher, 8.10
- FC(F)(F)c1cc(COCC(c2ccccc2)N2CCN(CCN3CCOCC3)CC2)cc(C(F)(F)F)c1 (racemic) [Compound 162] — 0.20 log units higher, 8.10
- FC(F)(F)c1cc(COCC(c2ccccc2)N2CCN(Cc3ccccn3)CC2)cc(C(F)(F)F)c1 (racemic) [Compound 170] — 0.60 log units lower, 7.30
- O=C1c2ccccc2C(=O)N1CCN1CCN(C(COCc2cc(C(F)(F)F)cc(C(F)(F)F)c2)c2ccccc2)CC1 (racemic) [Compound 171] — 0.80 log units lower, 7.10
- COc1cc(COCCN2CCN(C(COCc3cc(C(F)(F)F)cc(C(F)(F)F)c3)c3ccccc3)CC2)cc(OC)c1OC (racemic) [Compound 175] — 0.40 log units higher, 8.30
- NC(=O)CN1CCN(C(COCc2cc(C(F)(F)F)cc(C(F)(F)F)c2)c2cccc3ccccc23)CC1 (racemic) [Compound 191] — 0.70 log units lower, 7.20
- COC(=O)CN1CCN(C(COCc2cc(Br)cc(I)c2)c2ccccc2)CC1 (racemic) [Compound 208] — 0.70 log units lower, 7.20
- CC(C)(C)NC(=O)CN1CCN(C(COCc2cc(C(F)(F)F)cc(C(F)(F)F)c2)c2ccccc2)CC1 (racemic) [Compound 293] — 0.70 log units lower, 7.20
- CN(C(=O)CN1CCN(C(COCc2cc(C(F)(F)F)cc(C(F)(F)F)c2)c2ccccc2)CC1)C(C)(C)C (racemic) [Compound 294] — the same, 7.90
- CC(C)OC(=O)CN1CCN([C@H](COCc2cc(C(F)(F)F)cc(C(F)(F)F)c2)c2ccccc2)CC1 [Compound 136] — 0.80 log units lower, 7.10
- NC(=O)CN1CCN(C(COCc2cc(C(F)(F)F)cc(C(F)(F)F)c2)c2ccccc2)CC1 (stereo not drawn) [Compound 143] — 0.50 log units lower, 7.40
- NC(=O)CN1CCN([C@H](COCc2cc(C(F)(F)F)cc(C(F)(F)F)c2)c2ccccc2)CC1 [Compound 144, (S)-2-{4-[2-(3,5-Bis-trifluoromethyl-benzyloxy)-1-phenyl-ethyl]-piperazin-1-yl}-acetamide] — 0.50 log units lower, 7.40
- NC(=O)CN1CCN([C@@H](COCc2cc(C(F)(F)F)cc(C(F)(F)F)c2)c2ccccc2)CC1 [Compound 145] — 0.40 log units lower, 7.50
- NC(=O)CCN1CCN(C(COCc2cc(C(F)(F)F)cc(C(F)(F)F)c2)c2ccccc2)CC1 (stereo not drawn) [Compound 146] — within 0.2 log units, 7.80
- NC(=O)COCCN1CCN([C@H](COCc2cc(C(F)(F)F)cc(C(F)(F)F)c2)c2ccccc2)CC1 [Compound 148] — 0.50 log units lower, 7.40
- NC(=O)COCCN1CCN([C@@H](COCc2cc(C(F)(F)F)cc(C(F)(F)F)c2)c2ccccc2)CC1 [Compound 149] — 0.70 log units lower, 7.20
- OCCOCCN1CCN([C@H](COCc2cc(C(F)(F)F)cc(C(F)(F)F)c2)c2ccccc2)CC1 [Compound 158] — 0.20 log units higher, 8.10
- CCOP(=O)(CCN1CCN([C@H](COCc2cc(C(F)(F)F)cc(C(F)(F)F)c2)c2ccccc2)CC1)OCC [Compound 164] — 0.50 log units lower, 7.40
- COc1cc(CN2CCN([C@H](COCc3cc(C(F)(F)F)cc(C(F)(F)F)c3)c3ccccc3)CC2)cc(OC)c1OC [Compound 173] — 0.30 log units lower, 7.60
- COc1cc(CN2CCN([C@@H](COCc3cc(C(F)(F)F)cc(C(F)(F)F)c3)c3ccccc3)CC2)cc(OC)c1OC [Compound 174] — 0.50 log units lower, 7.40
- COc1cc(COCCN2CCN(C(COCc3cc(C(F)(F)F)cc(C(F)(F)F)c3)c3ccccc3)CC2)cc(OC)c1OC (stereo not drawn) [Compound 176] — 0.30 log units lower, 7.60
- FC(F)(F)c1cc(COCC(c2ccccc2)N2CCN(c3ccnc4ccccc34)CC2)cc(C(F)(F)F)c1 (stereo not drawn) [Compound 227] — 0.50 log units lower, 7.40
- NC(=O)CCCN1CCN(C(COCc2cc(C(F)(F)F)cc(C(F)(F)F)c2)c2ccccc2)CC1 (stereo not drawn) [Compound 288, 4-{4-[2-(3,5-Bis-trifluoromethyl-benzyloxy)-1-phenyl-ethyl]-piperazin-1-yl}-butyramide] — 0.40 log units higher, 8.30
- O=C(CCCCCN1CCN(C(COCc2cc(C(F)(F)F)cc(C(F)(F)F)c2)c2ccccc2)CC1)NO (stereo not drawn) [Compound 315, 6-{4-[2-(3,5-Bis-trifluoromethyl-benzyloxy)-1-phenyl-ethyl]-piperazin-1-yl}-hexanoic acid hydroxyamide] — 0.40 log units higher, 8.30
